In publication PMC5649189, “Bioactivity Potential of Prunus spinosa L. Flower Extracts: Phytochemical Profiling, Cellular Safety, Pro-inflammatory Enzymes Inhibition and Protective Effects Against Oxidative Stress In Vitro” (Frontiers in Pharmacology, 2017):

Molecular target: T1, lipoxygenase from soybean (LOX)
T1 construct: gene LOX1.1; such preparations are usually mainly lipoxygenase-1
Test: lipoxygenase inhibition assay, 96-well plate reader
Format: biochemical, Glycine max
Details: substrate linoleic acid; positive control; μg of standard per mL of the enzyme solution
Text: lipoxygenase inhibition assay, 96-well plate reader on lipoxygenase from soybean (LOX)

| LOX / IC50 (μg/mL)^a [µg/mL] | SMILES |
| --- | --- |
| 166.83 ± 7.15 | O=C(/C=C/c1ccc(O)c(O)c1)O[C@@H]1C[C@](O)(C(=O)O)C[C@@H](O)[C@H]1O [CHA, 5-O-Caffeoylquinic acid] |
| 92.60 ± 3.71 | COc1ccc2c(c1)c(CC(=O)O)c(C)n2C(=O)c1ccc(Cl)cc1 [IND, indomethacin] |
| 89.23 ± 2.13 | O=c1c(O)c(-c2ccc(O)c(O)c2)oc2cc(O)cc(O)c12 [QU, quercetin] |
| 162.70 ± 3.70 | C[C@@H]1O[C@@H](OC[C@H]2O[C@@H](Oc3c(-c4ccc(O)c(O)c4)oc4cc(O)cc(O)c4c3=O)[C@H](O)[C@@H](O)[C@@H]2O)[C@H](O)[C@H](O)[C@H]1O [RT, Quercetin 3-O-(6′′-O-α-L-rhamnopyranosyl)-β-D-glucopyranoside] |
